We go through two substances from patent US6395740B1, “Calcitonin mimetics” (ZymoGenetics, Inc., priority 1997, dated 2002).

For assay [1], the system named is osteoclasts in PTH-treated mouse calvariae. Description: Calvaria histology: osteoclast number and size. Format: cell-based. The settings on record: PTH 1-34 treated mouse calvariae. From the text: To confirm the findings in the calvarial bone resorption assay employing calcium release from culture mouse calvariae, selected bones were fixed in 10% neutral buffered formalin and demineralized in 5% formic acid with 5% formalin. The bones were dehydrated through an ascending series of ethanol concentrations, infiltrated in glycol methacrylate, and embedded using a JB-4 embedding kit (PolySciences, warrington, Pa.) (Liu et al., J. Bone Mineral Res. 5:973-82 (1990)). Cross sections of calvariae cut at 5 μm were obtained and stained for tartrate-resistant acid phosphatase (TRAP) activity and counterstained with merhyl green and thionin for cell morphology (Laiu et al., supra). Osteociasts were identified by TRAP stain, multinucleation, large cell size, and irregular cell shape. The number of osteoclasts were counted from endocranial and ectocranial bone surfaces and expressed as number/mm perimeter. The size of all the osteoclasts counted was also measured using a Bone Morphometry program (Liu et al., supra; Bain, et al., J. Bone Miner. Res. 8:435-42 (1993)). […]
Calcitonin mimetic compounds were evaluated in a similar fashion for their ability to suppress PTH-induced increases in osteoclast number and size. Cell toxicity (or death) was also evaluated by the appearance of pyknotic nuclei in a small number of bone cells. […]

The subject of assay [2] is PTH-induced bone resorption in mouse calvaria. Description: Calvarial assay to determine calcitonin escape. Format: cell-based. Conditions: for visual observation of the calvaria (resorption): final time point (98 hours). The method, then:
Calvaria from 4-day old neonatal CD-1 mice (pregnant mice received from Charles River Laboratories) were trimmed with fine-tipped scissors to leave the parietal regions, including the sagittal suture. These trimmed bones were placed singly per well into 6-well culture cluster plates (Costar) with 1 mL/well of growth medium, Basel Medium (Eagle's with Earle's salts (GIBCO BRL, Gaithersburg, Md.)) containing 4.5 g/L glucose, 0.29 mg/mL L-glutamine, 1 mM sodium pyruvate, 15% heat-inactivated horse serum, antibiotics (penicillin-G 50 μg/mL, streptomycin 50 μg/mL, and neomycin 100 μg/mL) and containing 5 nM parathyroid hormone (PTH) 1-34 (Sigma), and rocked gently (RedRocker™) at 37° C. in a 5% CO2 humidified incubator for 17.5 hours preincubation. The concentration of PTH was chosen to insure maximum resorption. Calvaria designated as controls were pre-incubated in media without PTH.
Following preincubation, medium was removed and replaced with 1 mL/well of growth medium, as above, containing 20 or 30 μg/mL of the calcitonin mimetic 850-0231 in DMSO (final assay concentration of DMSO less than or equal to 1%), and compared with human calcitonin (hCT) tested at 0.5, 1.0, 5.0, […] All control wells contained a final assay concentration of DMSO equal to that present in the calcitonin mimetic treated wells.
Five bones were included in each sample group. Bones were incubated for a total of 98 hours. Time points were taken at 4, 8, 11, 24, 50.5, 72.5 and 98 hours. At each time point the media containing PTH was removed and fresh dilutions of compound in media were added to the calvaria. After the media was removed, total calcium measurements were made using a Nova 7/7+7 Electrolyte Analyzed (Nova Biomedical) according to the manufacturer's specifications. Induction of bone resorption by PTH is seen as an increase in the concentration of calcium in the growth medium due to degradation of the bone matrix.
A second calvaria bone resorption/escape assay was performed as described above with time points at 4, 8, 12, 16, 24, 49 and 73 hours. […] Histology was done on the PTH-treated and the 30 μg/mL calcitonin mimetic-treated calvaria.
A third calvaria bone resorption/escape assay was performed as described above with the following modifications. The calcitonin mimetic was tested at 5, 10 and 20 μg/mL. PTH was used at 10 nM to insure maximal resorption, hCT was tested at 2 nM and 8 nM and sCT was not included. Calvaria were pretreated with PTH for 19.75 hours. BrdU (bromodeoxyuridine, final concentration 10 μM) was added to the growth media for the final 17.5 hours, to identify proliferating cells. The lack of toxicity of 850-0231 will be verified by quartitating the number of proliferating BudU cells in histological sections of the calvaria. Time points were taken at 4, 8, 11, 24.5, 48 and 77 hours. A Novo CRT 10+ electrolyte analyzer (Nova Biomedical) was used to analyze the time point samples.
At the final time point, visual observations were made and photos taken to note the extent of resorption, and migration from the calvarial cells as a measure of toxicity. Again, human calcitonin lost its inhibitory effect between hours 11 and 24 (Table 5). The calvaria treated with the mimetic at 5 and 10 μg/mL also lost inhibitory effect between 11 and 24 hours.

Assay [3] can be described thus: Induction of hypocalcemia in rats. Type of assay: in vivo. Conditions: weanling male rats, tail vein, 0.5, 2.5, 5, 50 and 100 ng/rat, one hour. On the procedure: This assay is based on the in vivo acute effect of calcitonin on osteoclasts, which causes rapid retraction of osteoclass from bone surface (typically within 30 minutes) and which results in decreased bone resorption. See Mills, et al., in Endocrinology 1971—Proceedings of the Third International Symposium, Taylor (ed), Heinemann Medical, London, pp. 79-88 (1972) and Singer, et al., Clin. Endocrinol. 5(Supp):333s-340s (1976); the disclosures of which are incorporated herein by reference. The assay method was modified from the method described by Sturtridge and Kumar, Lancet 545:725-6, 1968, the disclosure of which is incorporated herein by reference.
For the assay of hypocalcemic activity, weanling male Holtzman Sprague-Dawley rats (22 days old) are infused with vehicle (PBS with 1 mM HCl and 0.1% BSA), calcitonin or calcitonin mimetics through the tail vein. One hour later, blood samples are collected by orbital sinus puncture to determine serum levels of calcium. A decrease in serum calcium indicates a hypocalcemic response. The hypocalcemic response is dose-dependent as determined using salmon calcitonin (0.5, 2.5, 5, 50 and 100 ng/rat) in this model.

For assay [4] the following is noted: TPTX rats, co-administration with PTH, two days; cited from earlier work.

Take human calcitonin: the “PTH-induced increase in number and size of osteoclasts” value in assay [1] is “suppressed”. For the same substance, in assay [2] (first assay, PTH 5 nM), the “time after which inhibitory effect on resorption was lost (escape)” value is recorded as “approximately 24 hours”. Besides, the “Cumulative Total Calcium” value in assay [2] (first assay, PTH 5 nM, hCT 10 nM, 4 hours) was 0.02 mg %; in assay [2] (first assay, PTH 5 nM, hCT 10 nM, 8 hours), 0.02 mg %; in assay [2] (first assay, PTH 5 nM, hCT 10 nM, 11 hours) it was −0.02 mg %; in assay [2] (first assay, PTH 5 nM, hCT 10 nM, 24 hours), 0.98 mg %; in assay [2] (first assay, PTH 5 nM, hCT 10 nM, 50.5 hours) it was 4.96 mg %; in assay [2] (first assay, PTH 5 nM, hCT 10 nM, 72.5 hours) it was 8.24 mg %. For the same substance, the “Cumulative Total Calcium” value is listed as 12.26 mg % in assay [2] (first assay, PTH 5 nM, hCT 10 nM, 98 hours); 0.10 mg % in assay [2] (second assay, PTH 5 nM, hCT 10 nM, 4 hours); −0.04 mg % in assay [2] (second assay, PTH 5 nM, hCT 10 nM, 8 hours); −0.06 mg % in assay [2] (second assay, PTH 5 nM, hCT 10 nM, 12 hours); 0.12 mg % in assay [2] (second assay, PTH 5 nM, hCT 10 nM, 16 hours); 0.92 mg % in assay [2] (second assay, PTH 5 nM, hCT 10 nM, 24 hours). The “Cumulative Total Calcium” value in assay [2] (second assay, PTH 5 nM, hCT 10 nM, 49 hours) amounted to 5.70 mg %; in assay [2] (second assay, PTH 5 nM, hCT 10 nM, 73 hours) it was 10.60 mg %; in assay [2] (third assay, PTH 10 nM, hCT 2 nM, 4 hours), 0.01 mg %; in assay [2] (third assay, PTH 10 nM, hCT 2 nM, 8 hours), 0.10 mg %; in assay [2] (third assay, PTH 10 nM, hCT 2 nM, 11 hours) it was 0.10 mg %; in assay [2] (third assay, PTH 10 nM, hCT 2 nM, 24.5 hours), 1.22 mg %. Moreover, the “Cumulative Total Calcium” value is listed as 4.88 mg % in assay [2] (third assay, PTH 10 nM, hCT 2 nM, 48 hours); 9.55 mg % in assay [2] (third assay, PTH 10 nM, hCT 2 nM, 77 hours); 0.08 mg % in assay [2] (third assay, PTH 10 nM, hCT 8 nM, 4 hours); 0.24 mg % in assay [2] (third assay, PTH 10 nM, hCT 8 nM, 8 hours); 0.27 mg % in assay [2] (third assay, PTH 10 nM, hCT 8 nM, 11 hours); 1.45 mg % in assay [2] (third assay, PTH 10 nM, hCT 8 nM, 24.5 hours). The “Cumulative Total Calcium” value in assay [2] (third assay, PTH 10 nM, hCT 8 nM, 48 hours) was determined as 4.60 mg %; in assay [2] (third assay, PTH 10 nM, hCT 8 nM, 77 hours) it was 9.74 mg %. In assay [2] (first assay), the “visual observation of the calvaria (resorption)” value is on record as “less resorption”.

Regarding salmon calcitonin, in assay [3], the “hypocalcemic response (decrease in serum calcium)” value was “dose-dependent”. In addition, the “PTH-induced serum, bone and kidney changes” value in assay [4] is “attenuated”. In addition, the “time after which inhibitory effect on resorption was lost (escape)” value in assay [2] (first assay, PTH 5 nM) is reported as “approximately 24 hours”. The “Cumulative Total Calcium” value in assay [2] (first assay, PTH 5 nM, sCT 0.2 nM, 4 hours) is given as 0.10 mg %; in assay [2] (first assay, PTH 5 nM, sCT 0.2 nM, 8 hours), 0.18 mg %; in assay [2] (first assay, PTH 5 nM, sCT 0.2 nM, 11 hours), 0.34 mg %; in assay [2] (first assay, PTH 5 nM, sCT 0.2 nM, 24 hours), 1.76 mg %; in assay [2] (first assay, PTH 5 nM, sCT 0.2 nM, 50.5 hours), 6.12 mg %; in assay [2] (first assay, PTH 5 nM, sCT 0.2 nM, 72.5 hours), 9.88 mg %. Besides, the “Cumulative Total Calcium” value in assay [2] (first assay, PTH 5 nM, sCT 0.2 nM, 98 hours) is 13.22 mg %; in assay [2] (second assay, PTH 5 nM, sCT 1 nM, 4 hours), −0.02 mg %; in assay [2] (second assay, PTH 5 nM, sCT 1 nM, 8 hours), −0.16 mg %; in assay [2] (second assay, PTH 5 nM, sCT 1 nM, 12 hours), −0.20 mg %; in assay [2] (second assay, PTH 5 nM, sCT 1 nM, 16 hours), 0.08 mg %; in assay [2] (second assay, PTH 5 nM, sCT 1 nM, 24 hours), 0.92 mg %. For the same substance, the “Cumulative Total Calcium” value is on record as 6.02 mg % in assay [2] (second assay, PTH 5 nM, sCT 1 nM, 49 hours) and 11.56 mg % in assay [2] (second assay, PTH 5 nM, sCT 1 nM, 73 hours). Also, the “visual observation of the calvaria (resorption)” value in assay [2] (first assay) is “less resorption”.
